# Experimental data taken from patent US8222299B2, “Organosulfur prodrugs for the prevention and treatment of infectious diseases” (Allium Vitalis Incorporated, priority 2003, dated 2012).
# Entries after “also recorded” stand apart in the source; their conditions may differ.
# Assays:
# [1] = system: Sendai virus; details: post treatment one hour after infection, measured 24 hours post infection; cited from earlier work
# [2] = pKa and ionization; type: physicochemical; details: pH of approximately 7
# [3] = cited from earlier work; for Reaction in Blood Half-life / Reaction in Blood Product (moles): in vitro
# [4] = mice, cited from earlier work; for protection from acetaminophen poisoning, pretreatment: SAMC 100 mg/kg
# [5] = system: SARS coronavirus; test: microbe, parasite or virus in culture; details: Severe acute respiratory syndrome coronavirus, read-out: reduction in the viability of infected cells
# [6] = system: cells; details: in vitro exposure; cited from earlier work
# [7] = system: uninfected cells; details: 0.01 mM
# [8] = chemiluminescense assay; cited from earlier work
# [9] = system: 13 types of bacteria; details: cited from earlier work
# [10] = system: prostaglandin synthase; details: 50 uM/L; cited from earlier work
# [11] = Non-enzymatic reaction of AllylSH with H2O2; type: physicochemical
# Description: Thiols are known to have various antioxidant properties, including the ability to scavenge (H2O2), although the specific ability of allyl mercaptan in this regard may not have been previously investigated.
# [12] = cited from earlier work
# [13] = biological target: CYP2D6 (Homo sapiens, UniProt P10635); details: cited from earlier work
# [14] = compounds from Allium grayi Regel and Allium fistulosum; cited from earlier work
# [15] = system: neutrophil influx; details: intravenous, 150 mg/kg; cited from earlier work
# CYP2D6, sequence (P10635 whole entry): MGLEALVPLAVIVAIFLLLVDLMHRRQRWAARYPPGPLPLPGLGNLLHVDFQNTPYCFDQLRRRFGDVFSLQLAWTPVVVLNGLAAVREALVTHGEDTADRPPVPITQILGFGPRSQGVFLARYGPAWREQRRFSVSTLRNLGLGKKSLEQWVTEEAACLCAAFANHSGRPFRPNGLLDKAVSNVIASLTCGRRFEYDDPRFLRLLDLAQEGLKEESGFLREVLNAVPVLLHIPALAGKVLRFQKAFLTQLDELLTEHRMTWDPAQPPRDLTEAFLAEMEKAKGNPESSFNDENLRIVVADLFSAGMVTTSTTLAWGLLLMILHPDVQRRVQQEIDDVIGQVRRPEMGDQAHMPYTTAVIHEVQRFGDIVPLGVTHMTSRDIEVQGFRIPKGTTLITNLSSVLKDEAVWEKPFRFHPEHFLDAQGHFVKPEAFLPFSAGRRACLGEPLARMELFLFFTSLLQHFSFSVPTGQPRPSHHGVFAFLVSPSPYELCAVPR
compound,measurement,setting,value
N[C@@H](CCC(=O)N[C@@H](CS)C(=O)NCC(=O)O)C(=O)O [Glutathione],reduction of the level of infection,[1],95%
"N[C@@H](CS)C(=O)O [Cys, Cysteine]",fraction ionized,[2],approximately 3%
"C=CCS[S+]([O-])CC=C (stereo not shown) [Allicin, DiAllylThioSulfinate]",time for metabolism to allyl-mercaptan,[3]; blood cells exposed to allicin,less than one minute
same,Reaction in Blood Half-life,[3],<1 min
same,Reaction in Blood Product (moles),[3],AllylSH (1.6)
"C=CCSSC[C@H](N)C(=O)O [SAMC, S-AllylMercaptoCysteine]","protection from acetaminophen poisoning, pretreatment",[4],protect mice
same,"protection from acetaminophen poisoning, post treatment",[4]; single dose 200 mg/kg shortly after exposure,protective
same,inhibition at 10 µM,[5],6%
same,Reaction in Blood Product (moles),[3],AllylSH (0.8)
same,total glutathione level of cells,[6],significantly increase; also recorded: significant increase
same,toxicity to uninfected cells,[7],no toxicity
same,antioxidant or pro-oxidant activity,[8],by far the most effective antioxidant
O=C(N[C@H](CO)[C@H](O)c1ccc([N+](=O)[O-])cc1)C(Cl)Cl [Chloramphenicol],species inhibited,[9]; 13 types of bacteria,12/13
same,average zone of inhibition,[9],20 mm
"C=CCSSCC=C [DADS, DiAllylDisulfide]",inhibition of prostaglandin synthase,[10],69%
same,reaction with H2O2 at high concentration,"[11]; initial 40 mM H2O2 and 0.85 mM Allyl-SH, FIG. 2",further oxidized to Allicin
same,water solubility in words,[12],poor water solubility
same,Reaction in Blood Half-life,[3],60 min
same,Reaction in Blood Product (moles),[3],AllylSH (0.8)
same,activity of the enzymes,[13],up to 121 pmol/min/pmol CYP2D6
same,conversion of DADS to allicin,[13]; in 30 minutes,approximately 30%
"C=CCS [AllylSH, AllylThiol]",reaction with H2O2 at low concentration,"[11]; initial 10 mM H2O2 and 0.85 mM Allyl-SH, FIG. 1",can reduce hydrogen peroxide
CCCS[S+]([O-])CCC (stereo not shown) [CH3(CH2)2S˜SO(CH2)2CH3],nematicidal activity,[14],most effective compound found
C=CCSC[C@H](N)C(=O)O [S-allylcysteine],"protection from acetaminophen poisoning, pretreatment",[4],not nearly as effective
"CC(=O)N[C@@H](CS)C(=O)O [NAC, N-acetylcysteine]",IL-1 induced neutrophil influx into lung lavages,[15],inhibited
